According to patent US20020015967A1, “FUNCTIONAL EXPRESSION OF ADENOSINE RECEPTORS IN YEAST” (priority 1998, published 2002):

Target: T1, human A3 receptor (Homo sapiens, UniProt P0DMS8)
T1 construct: expressed in transfected cells
T1 sequence (P0DMS8 1-318): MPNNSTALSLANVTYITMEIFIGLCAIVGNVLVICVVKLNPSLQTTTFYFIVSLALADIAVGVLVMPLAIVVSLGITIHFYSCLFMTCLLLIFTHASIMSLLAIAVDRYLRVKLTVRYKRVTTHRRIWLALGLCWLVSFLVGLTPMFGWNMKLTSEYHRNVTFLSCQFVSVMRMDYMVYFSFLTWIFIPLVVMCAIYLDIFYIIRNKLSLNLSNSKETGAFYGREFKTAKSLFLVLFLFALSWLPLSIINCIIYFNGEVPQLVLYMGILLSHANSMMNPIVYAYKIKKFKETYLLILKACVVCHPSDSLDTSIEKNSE
Assay: Radioligand displacement binding, [125I]AB-MECA, mammalian membranes
Conditions: [125I]AB-MECA 0.75 nM; 10 ug mammalian membranes; 60 minutes room temperature; read-out: IC50 hA3R

## O=c1[nH]c(=O)c2nc3ccccc3nc2[nH]1 [Alloxozine]
  IC50: 8.22 µM
